Data taken from PubChem BioAssay (NCI).
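In this assay, cells in 96-well plates receive the compound at five concentrations for 48 hours. Endpoints are linearly interpolated between the surrounding concentrations. GI50 is the concentration that inhibits growth by half. TGI: total growth inhibition.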

Columns and labels:
Assay in all cases: growth of human tumour cells (NCI), 48 h
BT-549 breast = tested on: BT-549 breast
CAKI-1 renal = tested on: CAKI-1 renal
COLO 205 colon = tested on: COLO 205 colon
DU-145 prostate = tested on: DU-145 prostate
HCT-15 colon = tested on: HCT-15 colon
HOP-62 NSCLC = tested on: HOP-62 NSCLC
HS 578T breast = tested on: HS 578T breast
OVCAR-8 ovarian = tested on: OVCAR-8 ovarian
SF-295 CNS = tested on: SF-295 CNS
SK-MEL-5 melanoma = tested on: SK-MEL-5 melanoma

SMILES | GI50 (BT-549 breast) | TGI (BT-549 breast) | GI50 (CAKI-1 renal) | TGI (CAKI-1 renal) | GI50 (COLO 205 colon) | TGI (COLO 205 colon) | GI50 (DU-145 prostate) | TGI (DU-145 prostate) | GI50 (HCT-15 colon) | TGI (HCT-15 colon) | GI50 (HOP-62 NSCLC) | TGI (HOP-62 NSCLC) | GI50 (HS 578T breast) | TGI (HS 578T breast) | GI50 (OVCAR-8 ovarian) | TGI (OVCAR-8 ovarian) | GI50 (SF-295 CNS) | TGI (SF-295 CNS) | GI50 (SK-MEL-5 melanoma) | TGI (SK-MEL-5 melanoma)
O=C(/C=C(/C=C/c1cccc2[nH]ccc12)OB(F)F)/C=C/c1cccc2[nH]ccc12 | 1.03 µM | 4.09 µM | 0.876 µM | 3.13 µM | 0.771 µM | 3.15 µM | 0.753 µM | 2.07 µM | 0.348 µM | 1.49 µM | 2.31 µM | 9.4 µM | 1.5 µM | > 100 µM | 0.347 µM | > 100 µM | 1.76 µM | 4.61 µM | 1.26 µM | 2.73 µM
COc1ccc(-c2cc(=O)c3c(OC)c4ccoc4c(/C=C/C=O)c3o2)cc1 | 2.14 µM | 7.15 µM | 5.03 µM | > 100 µM | 27.5 µM | 80.4 µM | 4.53 µM | 18.9 µM | 1.73 µM | 5.92 µM | 2.98 µM | 11.1 µM | 10.4 µM | > 100 µM | 2.83 µM | 27.3 µM | 3.4 µM | 26.5 µM | 1.69 µM | 3.51 µM
COc1cc(-c2oc3c(OC)c(O)c(OC)c(O)c3c(=O)c2OC)cc(OC)c1OC |  | > 100 µM |  | > 100 µM |  | > 100 µM |  | > 100 µM |  | > 100 µM |  | > 100 µM |  | 64.9 µM |  | > 100 µM |  | > 100 µM |  | > 100 µM
CCN1CCN(Cc2ccc(Nc3ncc(F)c(-c4cc(F)c5nc(C)n(C(C)C)c5c4)n3)nc2)CC1 | 6.54 µM | 13.7 µM | 0.187 µM | 7.51 µM | 0.218 µM | 6.26 µM | 5.75 µM | 12.2 µM | 0.47 µM | 11.7 µM | 6.68 µM | 13.8 µM | 0.745 µM | 15.3 µM | 9.58 µM | 26.2 µM | 0.0882 µM | 9.08 µM | 0.392 µM | 10.3 µM
NS(=O)(=O)c1ccc(N=Nc2c(O)[nH]c3ccc(C(=O)NCCCn4ccnc4)cc23)cc1 | > 25 µM | > 25 µM | > 25 µM | > 25 µM | > 25 µM | > 25 µM | > 25 µM | > 25 µM | > 25 µM | > 25 µM | > 25 µM | > 25 µM | > 25 µM | > 25 µM | > 25 µM | > 25 µM | > 25 µM | > 25 µM | > 25 µM | > 25 µM
Cc1nc2ccc(-n3ncc(C(=O)c4cc5ccccc5[nH]4)c3N)cc2[nH]1 | 5.43 µM | 38.6 µM | 7.16 µM | > 100 µM | 4.77 µM | 29.1 µM | 13.1 µM | > 100 µM | 0.884 µM | 36.6 µM | 4.9 µM | 51.6 µM | 10.5 µM | > 100 µM | 7.08 µM | > 100 µM | 4.87 µM | 44.8 µM | 5.46 µM | 18.4 µM
CS(=O)(=O)Nc1cc(-c2ccc3ncc(C#N)c(Nc4ccc(F)c(Cl)c4)c3c2)cnc1Cl | 0.0542 µM | 0.655 µM | 0.258 µM | 1.24 µM | 0.232 µM | 0.943 µM | 0.242 µM | > 22.1 µM | 0.167 µM | 4.91 µM | 0.195 µM | 8.42 µM | 0.131 µM | 0.798 µM | 0.331 µM | > 100 µM | 0.181 µM | 0.82 µM | 0.0428 µM | 0.159 µM
COc1ccc(-c2nc3sccn3c2-c2ccnc(NCCNS(=O)(=O)c3ccc(C(F)(F)F)cc3)n2)cc1 | 0.707 µM | 5.94 µM | 2.64 µM | > 100 µM | 3.29 µM | > 100 µM | 1.53 µM | > 100 µM | 2.59 µM | > 100 µM | 13.7 µM | > 100 µM | 2.35 µM | > 100 µM | 2.85 µM | > 100 µM | 2.24 µM | 5.58 µM | 1.24 µM | 2.52 µM
CCOC(=O)c1c(C)n([O-])c2cc(F)c(F)cc2[n+]1=O | 1.84 µM | 3.64 µM | 1.63 µM | 3.04 µM | 1.94 µM | 4.54 µM | 3.27 µM | 9.01 µM | 0.455 µM | 2.04 µM | 2.1 µM | 3.74 µM | 1.73 µM | 5.06 µM | 0.88 µM | 2.47 µM | 1.74 µM | 3.41 µM | 2.31 µM | 5.45 µM
CCOC(=O)c1c(-c2ccccc2)n2c(=O)cc(C)c3c(O)c(O)cc1c32 | 7.08 µM | 24.1 µM | 9.84 µM | 36.2 µM | 11 µM | 28.2 µM | 10.5 µM | 23.9 µM | 1.66 µM | 19.5 µM | 11.1 µM | 54.5 µM | 14.7 µM | 56.6 µM | 4.23 µM | 22.1 µM | 6.75 µM | > 100 µM | 4.44 µM | 16.9 µM
Nc1nc2ccc(CNc3ccc(C(=O)NC(CC(=O)O)C(=O)O)cc3)cc2c(=O)[nH]1 (centres undefined) | 4.02 µM | > 31 µM | 1.37 µM | > 100 µM | 10.7 µM | > 100 µM | 1.58 µM | > 100 µM | 0.757 µM | > 100 µM |  | > 100 µM | > 64.2 µM | > 100 µM | 1.16 µM | > 100 µM | 1 µM | > 28.7 µM | 5.35 µM | > 100 µM
CCc1ccc(Oc2c(-c3ccc(OCCc4cccc(C(F)(F)F)c4)cc3O)n[nH]c2C(F)(F)F)cc1 | 6.17 µM | 12.5 µM | 6.79 µM | 13.3 µM | 8.72 µM | 15.8 µM | 2.62 µM | 8.35 µM | 1.96 µM | 6.89 µM | 5.76 µM | 12 µM | 6.04 µM | 15.4 µM | 5.25 µM | 11.6 µM | 8.12 µM | 15.4 µM | 5.13 µM | 11 µM
